The values below come from patent US10307403B2, “Polymorphic forms and process” (GALECTO BIOTECH AB, priority 2015, dated 2019).

Holding throughout (type): physicochemical
Series [1] can be described thus: Aerodynamic particle size determination (APSD) via New Generation Impactor (NGI). The following applies: 20 mg in size 3 HPMC capsule, Plastiape Monodose inhaler. The procedure: To compare in vitro performance of the different forms for use in inhalation products, an aerodynamic particle size determination (APSD) was performed via New Generation Impactor (NGI) for Form 5 material produced via microfluidization and the amorphous form produced via spray drying. These were compared with the APSD obtained from micronized Form 1 material. For each APSD test, 20 mg 3,3′-Dideoxy-3,3′-bis-[4-(3-fluorophenyl)-1H-1,2,3-triazol-1-yl]-1,1′-sulfanediyl-di-β-D-galactopyranoside was filled into a size 3 HPMC capsule and actuated using a Plastiape Monodose inhaler device.

The nature of series [2]: Stability of micronized Form 1 under ICH conditions. From the text:
There is no increase in impurities and both the particle size and crystalline form remain unchanged.

Series [3] is described as follows: Solid form stability and moisture uptake.
[4] abbreviates: listed as Amorphous (Spray Drying).
[5] abbreviates: listed as Form 5 (microfluidization).

SMILES strings stand for the structures.

Take `OCC1O[C@@H](SC2O[C@H](CO)C(O)C(n3cc(-c4cccc(F)c4)nn3)[C@H]2O)C(O)C(n2cc(-c3cccc(F)c3)nn2)[C@H]1O` (stereo partly drawn) [Amorphous, 3,3′-Dideoxy-3,3′-bis-[4-(3-fluorophenyl)-1H-1,2,3-triazol-1-yl]-1,1′-sulfanediyl-di-β-D-galactopyranoside]: the “Mean Mass Aerodynamic Diameter (MMAD)” value in series [1] is reported as “in the respirable range”. For the same molecule, in series [1] (setting [4]), the “Fine Particle Dose (FPD)” value is listed as 11.8 mg, the “Fine Particle Fraction (FPF)” value is given as 91% and the “Mean Mass Aerodynamic Diameter (MMAD)” value is 1.7 μm.

For the molecule `OC[C@H]1O[C@@H](S[C@@H]2O[C@H](CO)[C@H](O)[C@H](n3cc(-c4cccc(F)c4)nn3)[C@H]2O)[C@H](O)[C@@H](n2cc(-c3cccc(F)c3)nn2)[C@H]1O` [Form 1, 3,3′-Dideoxy-3,3′-bis-[4-(3-fluorophenyl)-1H-1,2,3-triazol-1-yl]-1,1′-sulfanediyl-di-β-D-galactopyranoside], the “Mean Mass Aerodynamic Diameter (MMAD)” value in series [1] is “in the respirable range”. For the same molecule, in series [1] (listed as Form 1 (micronized)), the “Fine Particle Dose (FPD)” value was found to be 7.4 mg, the “Fine Particle Fraction (FPF)” value stood at 77% and the “Mean Mass Aerodynamic Diameter (MMAD)” value is 2.6 μm. In addition, in series [2] (6 Months @ 40° C./75 RH), the Appearance entry is recorded as “Conforms”, the Assay was found to be 97.2%, the “Particle Size D10” value came to 0.50 μm and the “Particle Size D50” value was found to be 1.97 μm. Also, in series [2] (6 Months @ 40° C./75 RH), the “Particle Size D90” value amounted to 4.68 μm, the “Polymorphism (crystalline form found)” value was “Form 1”, the “Specified impurity DEX-IMP-284-B” value was 0.89% and the “Specified impurity DEX-IMP-284-C” value turned out to be 0.05%. In addition, in series [2] (6 Months @ 40° C./75 RH), the “Total Impurities” value came to 1.57%, the “Unspecified impurity 0.922RRT” value turned out to be 0.12%, the “Unspecified impurity 1.057RRT” value worked out at 0.11% and the “Unspecified impurity 1.184RRT” value amounted to 0.34%. Also, the “Water Content” value in series [2] (6 Months @ 40° C./75 RH) is 5.2%. In series [2] (12 Months 25° C./60 RH), the Appearance entry is “Conforms”, the Assay was found to be 97.7%, the “Particle Size D10” value was 0.51 μm and the “Particle Size D50” value is recorded as 1.84 μm. Moreover, in series [2] (12 Months 25° C./60 RH), the “Particle Size D90” value is recorded as 4.29 μm, the “Polymorphism (crystalline form found)” value is reported as “Form 1”, the “Specified impurity DEX-IMP-284-B” value is 0.89% and the “Specified impurity DEX-IMP-284-C” value amounted to 0.04%. Also, in series [2] (12 Months 25° C./60 RH), the “Total Impurities” value stood at 1.54%, the “Unspecified impurity 0.922RRT” value turned out to be 0.12%, the “Unspecified impurity 1.057RRT” value amounted to 0.10% and the “Unspecified impurity 1.184RRT” value worked out at 0.34%. For the same molecule, the “Water Content” value in series [2] (12 Months 25° C./60 RH) is recorded as 4.4%. Moreover, the “Overall stability conclusion (in words)” value in series [2] (ICH conditions, Table 3A) is “stable both chemically and physically”. Moreover, in series [2] (Initial), the “Particle Size D10” value is 0.56 μm, the “Polymorphism (crystalline form found)” value was “Form 1”, the “Unspecified impurity 1.057RRT” value was determined as 0.08% and the “Unspecified impurity 1.184RRT” value amounted to 0.34%. Moreover, the “Water Content” value in series [2] (Initial) is 4.2%. For the same molecule, the Assay in series [2] (Initial, criterion 95.0-105.0% w/w) worked out at 97.9%. Moreover, the Appearance entry in series [2] (Initial, criterion white to off-white solid) is “Conforms”. Besides, in series [2] (Initial, criterion ≤1% (a/a)), the “Specified impurity DEX-IMP-284-B” value was determined as 0.90% and the “Specified impurity DEX-IMP-284-C” value was 0.03%. The “Unspecified impurity 0.922RRT” value in series [2] (Initial, criterion ≤1% each (a/a)) was 0.12%. The “Total Impurities” value in series [2] (Initial, criterion ≤2.5% (a/a)) was determined as 1.54%. In series [2] (Initial, target D50 ~2 μm), the “Particle Size D50” value was 2.37 μm. In series [2] (Initial, target D90 ≤5 μm), the “Particle Size D90” value came out at 5.09 μm. Also, the “Stability of the solid form (in words)” value in series [3] was “stable and does not convert to the other forms over time”. Also, the “Equilibrium water content after moisture pick-up” value in series [3] (dried upon synthesis, then picks up moisture) is 3-5%.

Take `OCC1O[C@@H](SC2O[C@H](CO)C(O)C(n3cc(-c4cccc(F)c4)nn3)[C@H]2O)C(O)C(n2cc(-c3cccc(F)c3)nn2)[C@H]1O` (stereo partly drawn) [Form 5, 3,3′-Dideoxy-3,3′-bis-[4-(3-fluorophenyl)-1H-1,2,3-triazol-1-yl]-1,1′-sulfanediyl-di-β-D-galactopyranoside]: the “Mean Mass Aerodynamic Diameter (MMAD)” value in series [1] is on record as “in the respirable range”. In series [1] (setting [5]), the “Fine Particle Dose (FPD)” value was found to be 7.7 mg, the “Fine Particle Fraction (FPF)” value stood at 63% and the “Mean Mass Aerodynamic Diameter (MMAD)” value was 2.3 μm. Further, the “Stability of the solid form (in words)” value in series [3] is “stable”.
